13 compounds from patent US10874670B2, “Substituted fused heteroaromatic compounds as kinase inhibitors and the use thereof” (IMPACT THERAPEUTICS, INC., priority 2017, dated 2020) can be followed below.

pIC50: −log10 of the molar value.

The target in one assay is ATM enzyme (human) (Homo sapiens, UniProt Q13315). The assay is described as follows: ATM kinase assay (HTRF, GST-cMyc-p53 substrate). Type of assay: biochemical. As to conditions: 0.5 h, read-out: Inh (%) of ATM kinase; for inhibition at 1 µM: C 1 μm (final concentration of compound); for inhibition at 0.01 µM: C 0.01 μm (final concentration of compound); for inhibition at 0.1 µM: C 0.1 μm (final concentration of compound). The method, then:
In Vitro Inhibition of ATM by N,N-dimethyl-3-(4-(1-(tetrahydro-2H-pyran-4-yl)-[1,2,4]triazolo[4,3-a]quinoxalin-8-yl)phenoxy)propan-1-amine and its Analogues was Determined by ATM Kinase Assay
The reaction was initiated by the addition of a Mg/ATP mixture and incubation for 30 minutes at room temperature, the reaction was quenched by the addition of a stop solution containing EDTA. Finally, the detection buffer containing the d2-labeled anti-GST monoclonal antibody and the europium-labeled anti-phospho p53 (Ser15) antibody was added. The plate was then read in time resolved fluorescence mode and the homogeneous time resolved fluorescence (HTRF) signal was determined according to the equation: HTRF=10000×(Em665nm/Em620nm). Each compound sample was repeated in duplicate. The experiment negative control was all components except of the ATM enzyme and the positive control contained all components. All reactions were quenched by adding EDTA.
ATM kinase inhibition was detected by using the method described above. The curve equation for calculating IC50 value is as follows:
[formula] • wherein, C is the concentration of compound and D is the slope factor.
(TR-FRET usually uses a lanthanide donor and a delayed reading to cut background.)

For assay [1], the system named is human colon cancer cell SW620. The assay can be described thus: MTT assay, growth of SW620 cells, compounds combined with CPT-11. It counts as cell-based. As to conditions: Homo sapiens, SW-620, 120 h; combined with CPT-11 (205 nM medium), 5 days, MTT. The method, then: Inhibitory effects of N,N-dimethyl-3-(4-(1-(tetrahydro-2H-pyran-4-yl)-[1,2,4]triazolo[4,3-a]quinoxalin-8-yl)phenoxy)propan-1-amine and its Analogues Combined with CPT-11 on the Growth of Human Colon Cancer Cell SW620 were Determined by MTT Assay
(§1) SW620 cells were digested by trypsinase, centrifuged at 800 rpm for 5 minutes, the supernatant was discarded, resuspended with fresh medium (RPMI 1640 medium+10% FBS) and counted. The cells were seeded into 96-well cell culture plate with appropriate cell density and incubated overnight in a 37° C. 5% CO2 incubator. The stock solutions of the tested compound and the reference compound AZD0156 were serially diluted to 8 concentrations by DMSO at the ratios of 1:3 and 1:10, respectively, the first concentration was 10 μM or 1 μM, and the last concentration was negative control of DMSO (0 μM, the final concentration of DMSO was 1%). 5 μL of each concentration was added to 120 μL of medium (25 times diluted) and mixed by shaking. The overnight cells were taken and the culture medium was removed, 195 μL of fresh medium containing 205 nM CPT-11 was added to each well, and 5 μL of diluted medium containing the corresponding concentration of the tested sample was added respectively, and the culture plate was then placed in the 5% CO2 cell culture incubator at 37° C. for 5 days. After removing the original solution, 100 pt of fresh serum-free DMEM medium containing MTT (0.5 mg/mL) was added to each well, the culture was continued. After 4 hours, the original solution was removed, 100 μL of DMSO was added into each well, the 96-well plates were shaken away from light for 10 minutes and placed in a multi-function reader to read the absorbance at the wavelength of 552/630/690 nm. GraphPad Prism 6.0 was used to analyze the data. The inhibitory activity of compounds on cell proliferation was plotted based on cell viability and compound concentration. The IC50 value was fitted by a sigmoidal dose response curve equation Y=100/(1+10^(Log C−Log IC50)), where C was the concentration of compound.
Table 3 summarizes the inhibitory effects of compounds combined with CPT-11 on the growth of human colon cancer cell SW620 (IC50).
A general note: Tetrazolium assays rely on reduction of a dye to a coloured formazan, in cell work by metabolically active cells.

The test system of assay [2] is human breast cancer cell MDA-MB-468. The assay can be described thus: MTT assay, growth of MDA-MB-468 cells. Type of assay: cell-based. To be noted: Homo sapiens, MDA-MB-468, 168 h; 7 days, MTT. As to the method: Inhibitory Effects of N,N-dimethyl-3-(4-(1-(tetrahydro-2H-pyran-4-yl)-[1,2,4]triazolo[4,3-a]quinoxalin-8-yl)phenoxy)propan-1-amine and its Analogues on the Growth of Human Breast Cancer Cell MDA-MB-468 were Determined by MTT Assay
as §1, with “MDA-MB-468 cells” for “SW620 cells”, “1:10, respectively:” for “1:10, respectively,”, “was 100” for “was 10”, “medium” for “medium containing 205 nM CPT-11”, “for 7 days (On the fourth day, the medium containing drugs was removed and fresh medium containing drugs was added for continuous cultivation).” for “for 5 days.”, “100 μL” for “100 pt”
Table 4 summarizes the inhibitory effects of compounds on the growth of human breast cancer cell MDA-MB-468 (IC50).

ATM enzyme (human), sequence (Q13315 whole entry): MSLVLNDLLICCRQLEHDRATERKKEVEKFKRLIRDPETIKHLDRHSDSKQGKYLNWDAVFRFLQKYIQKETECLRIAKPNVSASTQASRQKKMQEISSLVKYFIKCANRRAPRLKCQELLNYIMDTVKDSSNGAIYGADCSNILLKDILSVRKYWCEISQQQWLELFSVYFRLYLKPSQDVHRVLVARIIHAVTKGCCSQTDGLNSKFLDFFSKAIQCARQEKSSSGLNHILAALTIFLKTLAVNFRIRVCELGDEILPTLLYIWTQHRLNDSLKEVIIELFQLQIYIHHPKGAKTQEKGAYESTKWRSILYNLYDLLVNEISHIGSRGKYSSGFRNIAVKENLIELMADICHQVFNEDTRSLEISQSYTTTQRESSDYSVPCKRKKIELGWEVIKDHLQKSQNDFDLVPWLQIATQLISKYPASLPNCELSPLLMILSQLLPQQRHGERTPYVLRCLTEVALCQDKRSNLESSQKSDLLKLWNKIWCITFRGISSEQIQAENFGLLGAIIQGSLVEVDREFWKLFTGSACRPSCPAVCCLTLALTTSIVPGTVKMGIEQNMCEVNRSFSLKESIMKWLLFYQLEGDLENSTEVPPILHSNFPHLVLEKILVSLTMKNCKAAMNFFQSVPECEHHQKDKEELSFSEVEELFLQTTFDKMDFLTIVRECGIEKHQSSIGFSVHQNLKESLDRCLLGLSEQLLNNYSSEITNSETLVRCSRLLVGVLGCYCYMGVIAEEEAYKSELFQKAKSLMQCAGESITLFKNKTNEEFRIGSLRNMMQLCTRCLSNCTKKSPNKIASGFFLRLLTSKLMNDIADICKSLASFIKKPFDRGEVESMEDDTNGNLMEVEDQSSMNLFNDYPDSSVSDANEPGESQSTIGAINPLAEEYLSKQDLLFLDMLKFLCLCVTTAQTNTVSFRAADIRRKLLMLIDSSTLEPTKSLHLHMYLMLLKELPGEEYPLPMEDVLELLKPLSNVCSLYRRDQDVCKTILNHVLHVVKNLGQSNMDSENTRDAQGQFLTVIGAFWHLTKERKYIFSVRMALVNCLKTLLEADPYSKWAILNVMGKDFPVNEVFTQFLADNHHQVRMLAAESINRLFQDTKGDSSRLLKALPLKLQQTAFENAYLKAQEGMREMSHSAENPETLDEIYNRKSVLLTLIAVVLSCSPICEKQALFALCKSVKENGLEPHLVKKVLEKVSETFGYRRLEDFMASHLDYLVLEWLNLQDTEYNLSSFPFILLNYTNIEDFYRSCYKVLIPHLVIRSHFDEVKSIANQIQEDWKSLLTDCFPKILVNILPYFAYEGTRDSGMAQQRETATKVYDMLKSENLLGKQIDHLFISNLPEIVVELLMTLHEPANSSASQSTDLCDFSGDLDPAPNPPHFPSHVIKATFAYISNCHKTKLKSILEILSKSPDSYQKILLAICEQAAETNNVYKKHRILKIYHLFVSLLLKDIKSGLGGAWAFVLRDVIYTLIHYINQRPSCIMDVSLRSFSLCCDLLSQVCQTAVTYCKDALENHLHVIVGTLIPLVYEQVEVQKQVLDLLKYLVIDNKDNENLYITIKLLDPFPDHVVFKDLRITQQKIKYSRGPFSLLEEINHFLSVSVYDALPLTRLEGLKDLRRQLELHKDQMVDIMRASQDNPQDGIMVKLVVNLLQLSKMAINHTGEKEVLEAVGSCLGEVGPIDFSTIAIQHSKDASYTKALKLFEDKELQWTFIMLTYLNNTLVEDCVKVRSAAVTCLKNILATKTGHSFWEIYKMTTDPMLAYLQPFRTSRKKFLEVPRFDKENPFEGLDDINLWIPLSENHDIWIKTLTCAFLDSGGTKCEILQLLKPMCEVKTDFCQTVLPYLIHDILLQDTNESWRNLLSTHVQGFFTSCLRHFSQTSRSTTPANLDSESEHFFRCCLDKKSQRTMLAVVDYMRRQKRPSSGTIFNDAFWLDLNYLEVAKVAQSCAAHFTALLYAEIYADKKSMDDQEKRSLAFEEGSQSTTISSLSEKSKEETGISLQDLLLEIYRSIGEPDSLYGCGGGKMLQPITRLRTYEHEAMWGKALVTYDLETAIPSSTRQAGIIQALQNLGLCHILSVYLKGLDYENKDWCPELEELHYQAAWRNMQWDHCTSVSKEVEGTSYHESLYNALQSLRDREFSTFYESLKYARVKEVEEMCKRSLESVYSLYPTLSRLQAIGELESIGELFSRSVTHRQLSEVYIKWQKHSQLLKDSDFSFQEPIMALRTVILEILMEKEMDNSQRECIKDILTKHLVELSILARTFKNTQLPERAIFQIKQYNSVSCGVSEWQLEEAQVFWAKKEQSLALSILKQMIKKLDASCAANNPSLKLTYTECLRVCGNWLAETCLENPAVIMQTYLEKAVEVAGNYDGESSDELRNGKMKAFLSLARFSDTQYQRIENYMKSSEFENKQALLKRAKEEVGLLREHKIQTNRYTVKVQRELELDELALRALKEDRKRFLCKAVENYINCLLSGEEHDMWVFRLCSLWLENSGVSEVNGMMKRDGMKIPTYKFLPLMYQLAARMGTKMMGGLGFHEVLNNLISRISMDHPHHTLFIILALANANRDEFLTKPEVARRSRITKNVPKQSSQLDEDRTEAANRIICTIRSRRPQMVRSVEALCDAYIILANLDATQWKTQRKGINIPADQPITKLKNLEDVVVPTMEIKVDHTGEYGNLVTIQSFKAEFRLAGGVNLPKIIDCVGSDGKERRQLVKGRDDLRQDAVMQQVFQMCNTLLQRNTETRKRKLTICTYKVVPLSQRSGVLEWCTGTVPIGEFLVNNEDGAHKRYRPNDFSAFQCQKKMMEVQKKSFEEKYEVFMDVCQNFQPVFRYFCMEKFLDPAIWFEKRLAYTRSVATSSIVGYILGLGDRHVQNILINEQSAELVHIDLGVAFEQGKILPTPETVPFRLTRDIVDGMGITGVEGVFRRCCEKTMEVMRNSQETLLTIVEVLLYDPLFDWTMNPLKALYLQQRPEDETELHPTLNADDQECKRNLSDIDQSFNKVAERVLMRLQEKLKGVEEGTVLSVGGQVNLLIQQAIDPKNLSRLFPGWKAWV

As usually defined, the pIC50 is the IC50 on a negative log10 scale, so that one unit is a factor of ten. On to `CN(C)C1CCN(c2ccc(-c3cc4c(cn3)ncc3nnc(C5CCOCC5)n34)cc2)CC1` [Example 71, N,N-dimethyl-1-(4-(1-(tetrahydro-2H-pyran-4-yl)pyrido[3,4-e][1,2,4]triazolo[4,3-a]pyrazin-8-yl)phenyl)piperidin-4-amine], for which the inhibition at 1 µM at ATM enzyme (human) turned out to be 19%. Moreover, the negative logarithm of the IC50 (pIC50) in assay [1] and in assay [2] was less than 4.00 throughout.
In the case of `CN(C)CCC1CCN(c2ccc(-c3ccc4ncc5nnc(C6CCOCC6)n5c4c3)cc2)CC1` [Example 54, N,N-dimethyl-2-(1-(4-(1-(tetrahydro-2H-pyran-4-yl)-[1,2,4]triazolo[4,3-a]quinoxalin-8-yl)phenyl)piperidin-4-yl)ethan-1-amine], the inhibition at 1 µM on ATM enzyme (human) stood at 82%. The pIC50 in assay [1] and in assay [2] was less than 4.00 in each case.
With `CN(C)C1CCN(c2ccc(-c3ccc4ncc5nnc(C6CCOCC6)n5c4n3)cc2)CC1` [Example 72, N,N-dimethyl-1-(4-(9-(tetrahydro-2H-pyran-4-yl)pyrido[3,2-e][1,2,4]triazolo[4,3-a]pyrazin-2-yl)phenyl)piperidin-4-amine], on ATM enzyme (human) (C 0.001 μm (final concentration of compound)), the inhibition at 0.001 µM came out at 39%. At ATM enzyme (human), the inhibition at 0.01 µM was 82%, the inhibition at 0.1 µM was found to be 97% and the inhibition at 1 µM worked out at 99%. Further, the pIC50 in assay [1] is 7.20. In assay [2], this compound had a pIC50 of 6.99.
Regarding `CN(C)C1CCN(c2ccc(-c3ccc4ncc5nnc(C6CCOCC6)n5c4c3)nc2)CC1` [Example 52, N,N-dimethyl-1-(6-(1-(tetrahydro-2H-pyran-4-yl)-[1,2,4]triazolo[4,3-a]quinoxalin-8-yl)pyridin-3-yl)piperidin-4-amine], the inhibition at 1 µM on ATM enzyme (human) was determined as 98%. Further, the results for the pIC50 in assay [1] and in assay [2] were less than 5.00 and 6.28, respectively.
On to `CN(C)C1CCN(c2ccc(-c3ccc4ncc5nnc(C6CCOCC6)n5c4c3)cc2)CC1` [Example 12, N,N-dimethyl-1-(4-(1-(tetrahydro-2H-pyran-4-yl)-[1,2,4]triazolo[4,3-a]quinoxalin-8-yl)phenyl)piperidin-4-amine], for which, at ATM enzyme (human), the inhibition at 0.01 µM was found to be 50%, the inhibition at 0.1 µM was 93% and the inhibition at 1 µM worked out at 100%. The pIC50 in assay [1] is 6.76. Besides, in assay [2], the pIC50 is 6.63.
As for `CN(C)CCCN(C)c1ccc(-c2ccc3ncc4nnc(C5CCOCC5)n4c3c2)cc1` [Example 11, N-(3-(dimethylamino)propyl)-N-methyl-4-(1-(tetrahydro-2H-pyran-4-yl)-[1,2,4]triazolo[4,3-a]quinoxalin-8-yl)aniline], the inhibition at 1 µM at ATM enzyme (human) was 64%. Also, the pIC50 in assay [1] and in assay [2] was less than 4.00 each time.
On to `CN(C)C1CCN(c2ccc(-c3ccc4ncc5nnc(C6CCOCC6)n5c4c3)c(C(F)(F)F)c2)CC1` [Example 51, N,N-dimethyl-1-(4-(1-(tetrahydro-2H-pyran-4-yl)-[1,2,4]triazolo[4,3-a]quinoxalin-8-yl)-3-(trifluoromethyl)phenyl)piperidin-4-amine], for which, on ATM enzyme (human), the inhibition at 1 µM was 74%. Also, the negative logarithm of the IC50 (pIC50) in assay [1] is less than 5.00; in assay [2] it was 5.43.
As to `CN(C)CCCOc1ccc(-c2ccc3ncc4nnc(-c5c[nH]cn5)n4c3c2)cc1` [Example 29, N,N-dimethyl-3-(4-(1-(1H-imidazol-4-yl)-[1,2,4]triazolo[4,3-a]quinoxalin-8-yl)phenoxy)propan-1-amine], on ATM enzyme (human), the inhibition at 0.01 µM was 34%, the inhibition at 0.1 µM was determined as 81% and the inhibition at 1 µM is 97%. Besides, in assay [1], the pIC50 is 5.92. Further, the pIC50 in assay [2] is 6.07.
In the same order, the values of `CN(C)C1CCN(c2ccc(-c3ccc4ncc5nnc(C6CCOCC6)n5c4c3)cc2Cl)CC1` [Example 45, 1-(2-chloro-4-(1-(tetrahydro-2H-pyran-4-yl)-[1,2,4]triazolo[4,3-a]quinoxalin-8-yl)phenyl)-N,N-dimethylpiperidin-4-amine] are 67%, 94%, 100%, 6.77 and 6.97.
As to `C[C@@H]1CN(c2nnc3cnc4ccc(-c5ccc(N6CCC(N(C)C)CC6)c(F)c5)nc4n23)C[C@H](C)N1C` [Example 85, 1-(2-fluoro-4-(9-((3S,5R)-3,4,5-trimethylpiperazin-1-yl)pyrido[3,2-e][1,2,4]triazolo[4,3-a]pyrazin-2-yl)phenyl)-N,N-dimethylpiperidin-4-amine], the negative-log IC50 (pIC50) is 7.38 in assay [1] and 7.65 in assay [2].
As to `CN(C)C1CCN(c2ccc(-c3ccc4ncc5nnc(N6CCC(N(C)C)CC6)n5c4n3)cc2)CC1` [Example 90, 1-(2-(4-(4-(dimethylamino)piperidin-1-yl)phenyl)pyrido[3,2-e][1,2,4]triazolo[4,3-a]pyrazin-9-yl)-N,N-dimethylpiperidin-4-amine], the pIC50 was 6.01 in assay [1] and less than 5.00 in assay [2].
As to `C[C@@H]1CN(c2nnc3cnc4ccc(-c5ccc(N6CCC(N(C)C)CC6)cc5)nc4n23)C[C@H](C)N1C` [Example 84, N,N-dimethyl-1-(4-(9-((3S,5R)-3,4,5-trimethylpiperazin-1-yl)pyrido[3,2-e][1,2,4]triazolo[4,3-a]pyrazin-2-yl)phenyl)piperidin-4-amine], the figures for the pIC50 in assay [1] and in assay [2] were 7.15 and 6.61, respectively.
In the same order, the values of `C[C@@H]1CN(c2nnc3cnc4ccc(-c5ccc(N6CCC(N(C)C)CC6)c(F)c5)cc4n23)C[C@H](C)N1C` [Example 59, 1-(2-fluoro-4-(1-((3S,5R)-3,4,5-trimethylpiperazin-1-yl)-[1,2,4]triazolo[4,3-a]quinoxalin-8-yl)phenyl)-N,N-dimethylpiperidin-4-amine] are 7.84 and 8.18.
